The target in one experiment is T1, FicD^L258D (Homo sapiens, UniProt Q9BVA6, L258D).
T1 construct: soluble ER luminal domain (residues 105 to 458) of wild-type human FicD and three mutants; 6xHis-Sumo (N, cleaved yes); made in house; host or cells: Rosetta(DE3) E. coli
T1 sequence (Q9BVA6 105-458 L258D): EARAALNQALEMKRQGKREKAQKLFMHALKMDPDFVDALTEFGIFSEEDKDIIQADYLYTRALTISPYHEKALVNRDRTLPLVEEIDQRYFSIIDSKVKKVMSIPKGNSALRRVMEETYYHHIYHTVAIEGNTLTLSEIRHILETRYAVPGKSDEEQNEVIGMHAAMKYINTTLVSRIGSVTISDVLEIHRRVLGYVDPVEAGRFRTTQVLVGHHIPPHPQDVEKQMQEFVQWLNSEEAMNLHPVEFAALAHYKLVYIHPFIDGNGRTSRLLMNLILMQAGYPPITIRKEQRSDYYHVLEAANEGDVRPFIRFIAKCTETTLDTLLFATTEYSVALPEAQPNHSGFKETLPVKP
Kind of experiment: Differential scanning fluorimetry (DSF) thermal shift with FicD^L258D. In kind it is binding. As to the method:
Differential Scanning Fluorimetry
Thermal shift assays were performed in Biorad CfX384 Touch Real-Time PCR Detection System […]
Reactions contained 50mM HEPES pH 7.4, 200mM NaCl, 200mM KCl, 200uM DTT, 5X Invitrogen Sypro Orange (Cat no. S6650), 8-9μM protein, and indicated nucleotide, cofactor, or small molecule in a total volume of 20uL. For every experiment ‘no protein’ controls were also included with the same reaction conditions. All reactions were performed in technical triplicates. Sealed plates containing reaction mixes were centrifuged for 1-5 min at 1000 RPM prior to temperature scanning (FRET channel), which was performed from 6°C […]
DSF data was analyzed with traditional methods automated in a Python package (https://pypi.org/project/instawell/). Briefly, for each temperature, the RFU values of technical triplicates are averaged. For each timepoint, the background fluorescence was subtracted using the RFU values of the ‘no protein’ control. […]
calculated. The melting temperature (Tm) is defined as the first derivative peak value. Data
For orientation: In DSF a fluorescence change marks the thermal transition of the protein.

The target of another experiment is T2, FicD^E234G (Homo sapiens, UniProt Q9BVA6, E234G).
T2 construct: soluble ER luminal domain (residues 105 to 458) of wild-type human FicD and three mutants; 6xHis-Sumo (N, cleaved yes); made in house; host or cells: Rosetta(DE3) E. coli
T2 sequence (Q9BVA6 105-458 E234G): T1 sequence (Q9BVA6 105-458 L258D) with E130G, D154L
Description: MIDAS metabolite screen, FicD^E234G. The experiment is classed as binding. To be noted: cutoff Q < 0.05 and |Log2 corrected fold change| > 2, metabolites 5 µM.

For experiment [1], the target named is T3, FicD^WT (Homo sapiens, UniProt Q9BVA6).
T3 construct: soluble ER luminal domain (residues 105 to 458) of wild-type human FicD; 6xHis-Sumo (N, cleaved yes); made in house; host or cells: Rosetta(DE3) E. coli
T3 sequence (Q9BVA6 105-458): T1 sequence (Q9BVA6 105-458 L258D) with D154L
Description: In vitro deAMPylation of Δ26hBiP^T229A-AMP by FicD^WT (Western blot). In kind it is biochemical. To be noted: 100 μM metabolite, 5 mM MgCl2. The text has this:
(§1) We next sought to assess the effects of FPP, GPP, and isoprenoid analogues on FicD activity. To accurately judge the effects of small molecules on FicD AMPylation activity, we used the ATPase defective BiP^T229A mutant as substrate ([22], [49], [50]). Loss of ATP hydrolysis by the BiP mutant ensures: 1. conformational homogeneity of the BiP protein substrate; 2. lack of BiP competition for the ATP substrate; and 3. no production of ADP, a competitive inhibitor for ATP. In addition, we deleted the first 25 amino acids of BiP for ease with its purification and solubility. […]
For deAMPylation assays with FicD and BiP, Δ26hBiPT229A was in-vitro AMPylated by […]
5mM MgCl2, 500uM ATP, 0.5% CHAPS, 1mM DTT. After one hour of incubation at 30-37C, the entire reaction mix was transferred into an Amicon 0.5mL 50kDa MWCO concentrator (cat no.
7.4/150mM NaCl/10% glycerol/1mM DTT was added to the concentrated AMPylation reaction and then spun down again at 14,000 x g at 4C for 5-10 minutes. This step was repeated four times to buffer exchange AMPylated Δ26hBiPT229A.
Δ104hFicDWT and Δ26hBiPT229A-AMP were combined at a ratio of 1:80 in buffer containing 25mM HEPES pH 7.4, 100mM KCl, 5mM MgCl2, 1mM DTT and the indicated small molecule where applicable. Reactions were incubated at 37C for 1 hour and stopped by the addition EDTA. 5X SDS sample buffer (250mM Tris pH 6.8, 10% Lithium dodecyl sulfate, 50% glycerol, 50mM DTT, 0.05% Bromophenol blue) was then added to the reactions and reactions were heated for 5 minutes at […]

In experiment [2] the target is T3, FicD^WT. Kind of experiment: In vitro AMPylation of Δ26hBiP^T229A by FicD^WT (Western blot). The settings on record: 100 μM metabolite, 500 μM ATP, 5 mM MgCl2. In kind it is biochemical.
Description: as §1
For AMPylation assays with FicD and BiP, Δ104FicDWT and Δ26hBiPT229A were combined at a ratio
of 1:80 in buffer containing 25mM HEPES pH 7.4, 100mM KCl, 5mM MgCl2, 500μM ATP, 1mM
DTT, and small molecule where indicated. Assays with Δ104FicDWT were incubated for 1 hour.
the amount of FicD as in reactions containing FicDWT and were incubated at 37C for 4.5 hours. […]
(In general: Immunoblotting shows a protein as a band on a membrane.)

The target of experiment [3] is T3, FicD^WT. Description: MIDAS equilibrium dialysis/mass spectrometry metabolite screen, FicD^WT. In kind it is binding. The settings on record: cutoff Q < 0.05 and |Log2 corrected fold change| > 2, metabolites 5 µM. A general note: In equilibrium dialysis only unbound substance equilibrates across the membrane.
Description: (§2) To identify small-molecule metabolite interactions with FicD, we applied an unbiased high-throughput screening approach known as MIDAS ([44]).

The structures appear in SMILES notation. Numbering of substitutions follows the chain as printed.

Description for FicD^E234G: as §2

`Nc1ncnc2c1ncn2[C@@H]1O[C@H](COP(=O)(O)OP(=O)(O)OP(=O)(O)O)[C@@H](O)[C@H]1O` [ATP, adenosine triphosphate]: the results for the “binding to FicD^L258D by DSF” value on FicD^L258D (absence of MgCl2) and at FicD^L258D (presence of 5 mM MgCl2) were “did not bind” and “did not show saturation”, respectively. Besides, the “MIDAS protein-metabolite interaction (enrichment/depletion)” value on FicD^E234G was “did not pass the significance cutoff”.

Regarding `CC(C)=CCOP(=O)(O)OP(=O)(O)O` [DMAPP, dimethylallyl-pyrophosphate], the “binding to FicD^L258D by DSF” value on FicD^L258D (presence of 5 mM MgCl2) is “did not bind”. Besides, the “inhibition of deAMPylation activity of FicD^WT” value (from here on “inhibition … of FicD^WT”) at FicD^WT [1] is on record as “did not affect”. For the same compound, on FicD^WT [2], the “inhibition of AMPylation of Δ26hBiP^T229A by FicD^WT” value is reported as “did not”.

For `CC(C)=CCC/C(C)=C\CC/C(C)=C\COP(=O)(O)O` [FMP, farnesyl-monophosphate], on FicD^L258D (presence of 5 mM MgCl2), the “binding to FicD^L258D by DSF” value is “did not bind”. On FicD^WT [1], the “inhibition … of FicD^WT” value is “did not affect”. Moreover, the “inhibition of AMPylation of Δ26hBiP^T229A by FicD^WT” value at FicD^WT [2] was “did not”.

Regarding `CC(C)=CCC/C(C)=C/COP(=O)(O)O` [GMP, geranyl-monophosphate], on FicD^L258D (presence of 5 mM MgCl2), the “binding to FicD^L258D by DSF” value is recorded as “did not bind”. Further, the “inhibition … of FicD^WT” value at FicD^WT [1] is on record as “did not affect”. Further, the “inhibition of AMPylation of Δ26hBiP^T229A by FicD^WT” value on FicD^WT [2] is “did not”.

With `CC(O)(CCOP(=O)(O)OP(=O)(O)O)CC(=O)O` (stereo not shown) [MVAPP, mevalonate-pyrophosphate], the “binding to FicD^L258D by DSF” value on FicD^L258D (presence of 5 mM MgCl2) is reported as “did not bind”. Further, the “inhibition … of FicD^WT” value at FicD^WT [1] is listed as “did not affect”. For the same compound, the “inhibition of AMPylation of Δ26hBiP^T229A by FicD^WT” value at FicD^WT [2] is “did not”.

For the compound `CC(C)=CCC/C(C)=C/CC/C(C)=C/CO` [farnesol], the “binding to FicD^L258D by DSF” value on FicD^L258D (presence of 5 mM MgCl2) was “did not bind”. In addition, the “inhibition … of FicD^WT” value at FicD^WT [1] is “did not affect”. For the same compound, the “inhibition of AMPylation of Δ26hBiP^T229A by FicD^WT” value at FicD^WT [2] is recorded as “did not”.

Turning to `CC(C)=CCC/C(C)=C/CO` [geraniol], the “binding to FicD^L258D by DSF” value on FicD^L258D (presence of 5 mM MgCl2) is on record as “did not bind”. Further, the “inhibition … of FicD^WT” value at FicD^WT [1] is given as “did not affect”. The “inhibition of AMPylation of Δ26hBiP^T229A by FicD^WT” value at FicD^WT [2] was “did not”.

For the compound `O=CC(=O)O` [glyoxylic acid], the “MIDAS protein-metabolite interaction (enrichment/depletion)” value on FicD^WT [3] is on record as “significantly depleted”.

(Values after article PMC12974487, “Inhibition of FicD-mediated AMPylation and deAMPylation by isoprenoid diphosphates” (Proceedings of the National Academy of Sciences of the …, 2026).)
